From PMC8410836, “Rational design of hyperstable antibacterial peptides for food preservation” (NPJ Science of Food, 2021)
≈ marks a conversion by molar mass, not a printed value. Read-outs that look alike come from different tables or passages of the source. Where a SMILES comes first, the peptide text is derived from it. Bridges are numbered along the chain shown (N, C = ends).

Experiments:
[1] = system: Micrococcus luteus ATCC4698; conditions: microdilution broth (CLSI, modified), Mueller-Hinton broth, 5 × 10^5 CFU/mL, 37 °C, 7–8 h, resazurin colour change, three independent experiments in triplicates
Method: (§1) Four Gram-positive bacteria: Listeria monocytogenes ATCC13932, Bacillus cereus ATCC11778, Staphylococcus aureus ATCC12900, and Micrococcus luteus ATCC4698 and three Gram-negative bacteria: Escherichia coli ATCC11775, Pectobacterium carotovorum MCC2112, and Salmonella typhimurium ATCC9844 were used in this study. These strains were stored at −80 °C in 25% (v/v) glycerol.
(§2) Antimicrobial assays against various bacterial cultures were done using the microdilution broth assay according to the Clinical and Laboratory Standards Institute (CLSI)[64] with some modifications. Mueller-Hinton broth was used to dilute the peptide stock and the bacterial inoculum. Inoculum was prepared from the mid-logarithmic phase culture. Each well of the microtiter plates received aliquots of 100 µL of the media containing different concentrations of peptide ranging from 0.3 to 300 µg/mL. The final concentration of bacteria in the wells was 5 × 10^5 Colony Forming Units (CFU) per mL. Ampicillin was used as positive control. For negative control, ultrapure water was used instead of peptides. Microtiter plates were incubated at 37 °C for 5–6 h with continuous shaking at 130 rpm (M. luteus cells were incubated for 7–8 h). The incubation time used for these assays was initially optimized using a 20-h incubation period. […] MIC assays were performed as three independent experiments in triplicates.

[2] = system: B. cereus; assay: Propidium iodide (PI) uptake assay; format: cell-based, Bacillus cereus; conditions: peptides at 2X MIC, Fig. 4e; three biological replicates
Method: B. cereus and M. luteus were grown in MH broth to logarithmic phase of growth and then diluted to OD600 ~ 0.25. Serial dilutions of the antimicrobial peptides (final concentrations, 0–100 μg/mL) were added to the wells of a black-walled microplate. Hundred microliters of the bacterial suspension containing PI (final concentration, 10 μM) was added to the wells. The emitted fluorescence was measured at excitation and emission wavelengths of 585 and 620 nm, respectively, for 2 h using a multimode plate reader (Varioskan Flash, Thermo Scientific, USA). The percentage of membrane permeabilization was calculated as the percent of fluorescent intensity of peptide-treated samples with respect to fluorescence intensity of PI-loaded, peptide untreated samples. PI uptake assays were performed as three independent experiments in triplicates.

[3] = target: T1, bovine trypsin (Bos taurus, UniProt P00760); conditions: BAPNA substrate, pH 8.2, 0.05 M Tris-HCl, 0.02 M CaCl2, 37 °C; double reciprocal and Dixon plot; mean and standard error of two biological replicates; listed as HSEP2-ΔK8
T1 sequence (P00760 24-246): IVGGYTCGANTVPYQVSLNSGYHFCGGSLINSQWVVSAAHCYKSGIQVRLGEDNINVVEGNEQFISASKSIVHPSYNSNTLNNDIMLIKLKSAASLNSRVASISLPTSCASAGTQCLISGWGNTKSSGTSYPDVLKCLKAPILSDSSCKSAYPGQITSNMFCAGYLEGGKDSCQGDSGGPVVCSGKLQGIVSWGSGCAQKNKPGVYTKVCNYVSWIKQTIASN
Method: (§3) The amidase activity of trypsin and its inhibition was assayed using the chromogenic substrate BAPNA at pH 8.2 in 0.05 M Tris-HCl containing 0.02 M CaCl2 at 37 °C. The assay reaction contained 50 µL of trypsin solution (40–50 μg of trypsin in 1 mM HCl), 50 µL of water, and 125 µL of the substrate. The reaction was carried out at 37 °C for 10 min and stopped by addition of 0.25 mL of 30% acetic acid. […] The trypsin solution was incubated with an aliquot of inhibitor for 10 min at 37 °C and reaction started by the addition of 125 µL substrate and incubated at 37 °C for 10 min. […] The effect of varying substrate concentration (BAPNA) on bovine trypsin in the presence of fixed concentrations of peptides was studied. The inhibition constants (Ki) were evaluated using the double reciprocal and Dixon plot of the data[65],[66]. Data presented are averages and standard error calculated from two biological replicate experiments.

[4] = system: Bacillus cereus ATCC11778; conditions: microdilution broth, MH broth, 5 × 10^5 CFU/mL, 37 °C, 5–6 h, resazurin
Method: as §1, §2

[5] = system: Escherichia coli ATCC11775; conditions: microdilution broth, MH broth, 5 × 10^5 CFU/mL, 37 °C, 5–6 h, resazurin
Method: as §1, §2

[6] = system: Listeria monocytogenes ATCC13932; conditions: microdilution broth, MH broth, 5 × 10^5 CFU/mL, 37 °C, 5–6 h, resazurin
Method: as §1, §2

[7] = system: Pectobacterium carotovorum MCC2112; conditions: microdilution broth, MH broth, 5 × 10^5 CFU/mL, 37 °C, 5–6 h, resazurin
Method: as §1, §2

[8] = system: Salmonella typhimurium ATCC9844; conditions: microdilution broth, MH broth, 5 × 10^5 CFU/mL, 37 °C, 5–6 h, resazurin
Method: as §1, §2

[9] = system: Staphylococcus aureus ATCC12900; conditions: microdilution broth, MH broth, 5 × 10^5 CFU/mL, 37 °C, 5–6 h, resazurin
Method: as §1, §2

[10] = system: B. cereus spores; format: cell-based, Bacillus cereus; conditions: spore suspension, resazurin; repeated at least twice
Method: B. cereus spores were used to test the effect of peptides on spore germination. Spores were prepared by inoculating 3 mL MH media with B. cereus cells and incubating at 30 °C at 180 rpm for 12 h. 2.5 mL of the culture was inoculated into a 250 mL MH media and incubated at 30 °C for 72 h. Furthermore, culture was temperature-treated at 80 °C for 30 min to eliminate the vegetative cells. Spore suspension was stored at 4 °C until further use. Two microliters of spore suspension was used to test the effect of HSEP3 and Nisin on spore germination using resazurin. All experiments were repeated at least twice.

[11] = system: B. cereus
Method: as §2
To determine the stability of HSEP3 at higher temperatures, 20 μL of HSEP3 (4 mg/mL) and 20 μL of Nisin in a 0.5 mL tube were autoclaved (for moist heat) at 121 °C for 20 min or heated at 95 °C for 30 min (for dry heat) and cooled to room temperature. Mixture was then used to test the antibacterial activity as previously described. Experiments were repeated in LB media to study the effect of complex media on antibacterial activity. All the experiments were repeated at least two times.

[12] = system: human red blood cells (hRBCs); conditions: peptide 0 to 200 μg/mL, 4% hRBCs in PBS, 1 h, 37 °C, absorbance 414 nm, Triton X-100 = 100%; three biological replicates
Method: The hemolytic activity of the peptide was evaluated using human red blood cells (hRBCs). Erythrocytes were separated from 1 mL of blood by centrifugation at 1500 rpm for 10 min. Collected hRBCs were washed three times with PBS, diluted to 4% (v/v) in PBS. Hundred microliters of the hRBCs having peptides ranging from 4 to 200 µg/mL as added into 96-well microtiter plate. The plates were incubated for 1 h at 37 °C without agitation and centrifuged at 1500 rpm for 5 min. Aliquots (100 μL) of the supernatant were transferred to 96-well plates and absorbance was measured at 414 nm. PBS and 1% Triton X-100 were used as control for 0% and 100% hemolysis, respectively. Percentage of hemolysis was calculated as (AT − AC)/(AX − AC) × 100; where AT is the experimental absorbance of treated supernatants, AC is the control absorbance of PBS-treated cell supernatant, and AX is the absorbance of 0.1% (v/v) Triton X-100 lysed cells. Data presented are averages and standard error from three biological replicate experiments.

[13] = target: T1, bovine trypsin; assay: biochemical; conditions: SEM
Method: as §3

SMILES	MIC (µg/mL) M. luteus ([1]; listed as HSEP2-ΔK8)	PI uptake fluorescence intensity of treated bacterial cells [2]	Ki (M) against bovine trypsin [3]	MIC Bacillus cereus [4] [µg/mL]	MIC Escherichia coli [5] [µg/mL]	MIC Listeria monocytogenes [6] [µg/mL]	MIC (µg/mL) M. luteus [1] [µg/mL]	MIC Pectobacterium carotovorum [7] [µg/mL]	MIC Salmonella typhimurium [8] [µg/mL]	MIC Staphylococcus aureus [9] [µg/mL]	Inhibition of B. cereus spore germination (MIC) [10] [µg/mL]	Effect of steam heat on antibacterial activity (in complex media), MIC ([11]; autoclaved at 121 °C for 20 min, LB media) [µg/mL]	Effect of steam heat on antibacterial activity (in MH media), MIC ([11]; autoclaved at 121 °C for 20 min, MH media) [µg/mL]	Effect of dry heat on antibacterial activity, MIC ([11]; heated at 95 °C for 30 min) [µg/mL]	hemolytic activity [12] [%]	Ki [13] [nM]
CC[C@H](C)[C@H](NC(=O)[C@@H](NC(=O)[C@@H](N)CO)C(C)C)C(=O)N[C@@H](Cc1ccccc1)C(=O)NCC(=O)N[C@H]1CSSC[C@@H](C(=O)N[C@@H](Cc2ccccc2)C(=O)N[C@H](C(=O)NCC(=O)N[C@@H](Cc2ccccc2)C(=O)N[C@@H](CCCCN)C(=O)O)C(C)C)NC(=O)[C@H]([C@@H](C)CC)NC(=O)[C@@H]2CCCN2C(=O)[C@@H]2CCCN2C(=O)[C@H]([C@@H](C)CC)NC(=O)[C@H](CO)NC(=O)[C@H]([C@@H](C)O)NC1=O [HSEP2-∆K8] (H-SVIFGCTSIPPICFVGFK-OH; disulfide 6-13; N-terminus and C-terminus assumed)	did not show any antibacterial activity	minimal fluorescence intensity	failed to show any trypsin inhibition	–	–	–	–	–	–	–	–	–	–	–	–	–
CC[C@H](C)[C@H](NC(=O)[C@@H](NC(=O)[C@H](CO)NC(=O)[C@@H](N)CCCNC(=N)N)C(C)C)C(=O)N[C@@H](Cc1ccccc1)C(=O)NCC(=O)N[C@H]1CSSC[C@@H](C(=O)N[C@@H](Cc2ccccc2)C(=O)N[C@H](C(=O)NCC(=O)N[C@@H](Cc2ccccc2)C(=O)N[C@@H](CCCCN)C(=O)O)C(C)C)NC(=O)[C@H]([C@@H](C)CC)NC(=O)[C@@H]2CCCN2C(=O)[C@@H]2CCCN2C(=O)[C@H]([C@@H](C)CC)NC(=O)[C@H](CO)NC(=O)[C@H](CCCCN)NC(=O)[C@H]([C@@H](C)O)NC1=O [HSEP3] (H-RSVIFGCTKSIPPICFVGFK-OH; disulfide 7-15)	–	–	–	12.5 (≈ 5.69 µM)	150 (≈ 68.3 µM)	50 (≈ 22.8 µM)	1.25 (≈ 0.569 µM)	50 (≈ 22.8 µM)	85 (≈ 38.7 µM)	150 (≈ 68.3 µM)	12.5	50	12.5	12.5	< 5	200
